Measured values: patent US12503475B2 (Centessa Pharmaceuticals (UK) Limited, priority 2020, dated 2025)
Like-named read-outs stand apart in the source and are kept apart here.

Biological target: T1, human orexin type 2 receptor (hOX2R) (Homo sapiens, UniProt O43614)
T1 construct: expressed in transfected cells
T1 sequence (O43614 1-444): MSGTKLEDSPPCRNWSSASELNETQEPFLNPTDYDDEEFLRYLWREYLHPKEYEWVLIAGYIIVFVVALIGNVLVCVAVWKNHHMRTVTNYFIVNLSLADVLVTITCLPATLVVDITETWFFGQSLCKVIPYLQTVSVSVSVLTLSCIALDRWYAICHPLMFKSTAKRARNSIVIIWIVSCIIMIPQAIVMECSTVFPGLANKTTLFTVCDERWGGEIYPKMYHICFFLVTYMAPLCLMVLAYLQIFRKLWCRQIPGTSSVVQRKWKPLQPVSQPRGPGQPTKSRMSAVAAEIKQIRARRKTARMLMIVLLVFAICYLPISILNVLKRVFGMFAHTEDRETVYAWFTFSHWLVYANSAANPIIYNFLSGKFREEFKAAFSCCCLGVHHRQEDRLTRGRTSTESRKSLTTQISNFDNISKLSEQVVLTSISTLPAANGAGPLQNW
Assay: Measurement of orexin type 2 receptor agonist activity (FLIPR calcium fluorescence)
Type: cell-based
Details: for EC50: read-out: hOx2 pEC50 (converted); for Emax: CHO, read-out: hOx2 Emax (%)
Protocol: The biological activity of the compounds of the present disclosure may be determined in cells stably expressing either orexin type 2 or orexin type 1 receptor. […] The agonist activity of a compound of the present disclosure may be determined by fluorescence value.
Stable cell line generation.
Measurement of orexin type 2 receptor agonist activity. […] As used herein, E. indicates the value at 10 μM concentration when orexin A is converted to a full agonist (maximum value of agonist activity. 100%).

[1] = CHO cells expressing hOX2R, FLIPR calcium fluorescence

| SMILES | EC50 [1] [nM] | Emax [1] [%] | Emax [%] |
| --- | --- | --- | --- |
| CS(=O)(=O)NC1C(Cc2cccc(-c3ccccc3)c2F)N(C(=O)C2(O)CCC2)CC12CC2 (racemic) [Compound 50, N-(6-((2-fluoro-[1,1′-biphenyl]-3-yl)methyl)-5-(1-hydroxycyclobutane-1-carbonyl)-5-azaspiro[2.4]heptan-7-yl)methanesulfonamide] | 0.0794 to 1 | 90 to 100 |  |
| CCS(=O)(=O)NC1C(Cc2cccc(-c3ccccc3)c2)N(C(=O)C(C)C)CC12CC2 (racemic) [Compound 7, N-(6-([1,1-biphenyl]-3-ylmethyl)-5-isobutyryl-5-azaspiro[2.4]heptan-7-yl)ethanesulfonamide] | 1 to 10 | 90 to 100 |  |
| CN(C)S(=O)(=O)N[C@@H]1[C@H](Cc2cccc(-c3ccccc3)c2)N(C(=O)[C@H]2CCO2)CC12CC2 [Compound 95, N-((6S,7S)-6-([1,1′-biphenyl]-3-ylmethyl)-5-((R)-oxetane-2-carbonyl)-5-azaspiro[2.4]heptan-7-yl)-N,N-dimethylsulfuric diamide] | 1 to 10 | 90 to 100 |  |
| CCNC(=O)N1CC2(CC2)[C@H](NS(=O)(=O)N(C)C)[C@@H]1Cc1cccc(-c2ccccc2)c1F [Compound 121] | 0.0794 to 1 | 90 to 100 |  |
| CN(C)S(=O)(=O)N[C@@H]1[C@H](Cc2cc(F)cc(-c3ccccc3)c2F)N(C(=O)[C@H](O)CF)CC12CC2 [Compound 353] | 1 to 10 | 90 to 100 |  |
| COC1CN(C(=O)N2CC3(CC3)C(NS(C)(=O)=O)C2Cc2cccc(-c3ccccc3)c2F)C1 (racemic) [Compound 46, N-(6-((2-fluoro-[1,1′-biphenyl]-3-yl)methyl)-5-(3-methoxyazetidine-1-carbonyl)-5-azaspiro[2.4]heptan-7-yl)methanesulfonamide] | 10 to 100 | 90 to 100 |  |
| O=C([C@@H](O)C(F)F)N1CC2(CC2)[C@H](NS(=O)(=O)C(F)F)[C@@H]1Cc1cccc(-c2ccccc2)c1F [Compound 198, N-((6S,7S)-5-((R)-3,3-difluoro-2-hydroxypropanoyl)-6-((2-fluoro-[1,1′-biphenyl]-3-yl)methyl)-5-azaspiro[2.4]heptan-7-yl)-1,1-difluoromethanesulfonamide] | 1 to 10 | 90 to 100 |  |
| CS(=O)(=O)N[C@@H]1[C@H](Cc2cccc(-c3ccccc3)c2F)N(C(=O)NC[C@H]2CCOC2)CC12CC2 [Compound 335, (6S,7S)-6-((2-fluoro-[1,1′-biphenyl]-3-yl)methyl)-7-(methylsulfonamido)-N-(((R)-tetrahydrofuran-3-yl)methyl)-5-azaspiro[2.4]heptane-5-carboxamide] | 1 to 10 | 90 to 100 |  |
| COC[C@@H](C)N(C)C(=O)N1CC2(CC2)[C@H](NS(C)(=O)=O)[C@@H]1Cc1cccc(-c2ccccc2)c1F [Compound 317, (6S,7S)-6-((2-fluoro-[1,1′-biphenyl]-3-yl)methyl)-N-((R)-1-methoxypropan-2-yl)-N-methyl-7-(methylsulfonamido)-5-azaspiro[2.4]heptane-5-carboxamide] | 1 to 10 | 90 to 100 |  |
| O=C([C@H](O)CF)N1CC2(CC2)[C@H](NS(=O)(=O)C(F)F)[C@@H]1Cc1cccc(-c2ccccc2)c1F [Compound 174, 1,1-difluoro-N-((6S,7S)-5-((S)-3-fluoro-2-hydroxypropanoyl)-6-((2-fluoro-[1,1′-biphenyl]-3-yl)methyl)-5-azaspiro[2.4]heptan-7-yl)methanesulfonamide] | 1 to 10 | 90 to 100 |  |
| CN(C)S(=O)(=O)N[C@@H]1[C@H](Cc2cccc(-c3ccccc3)c2F)N(C(=O)[C@H](O)C(F)(F)F)CC12CC2 [Compound 119, N-((6S,7S)-6-((2-fluoro-[1,1′-biphenyl]-3-yl)methyl)-5-((S)-3,3,3-trifluoro-2-hydroxypropanoyl)-5-azaspiro[2.4]heptan-7-yl)-N,N-dimethylsulfuric diamide] | 0.0794 to 1 | 90 to 100 |  |
| C[C@](O)(C(=O)N1CC2(CC2)[C@H](NS(=O)(=O)CF)[C@@H]1Cc1cccc(-c2ccccc2)c1F)C(F)F [Compound 234, N-((6S,7S)-5-((S)-3,3-difluoro-2-hydroxy-2-methylpropanoyl)-6-((2-fluoro-[1,1′-biphenyl]-3-yl)methyl)-5-azaspiro[2.4]heptan-7-yl)-1-fluoromethanesulfonamide] | 1 to 10 |  | 90 to 100 |

Continued, in another order:

| EC50 [1] [nM] | Emax [1] [%] | SMILES | Emax [%] |
| --- | --- | --- | --- |
| 10 to 100 | 90 to 100 | N#CCS(=O)(=O)N[C@@H]1[C@H](Cc2cccc(-c3ccccc3)c2)N(C(=O)[C@H]2CCO2)CC12CC2 [Compound 73] |  |
| 10 to 100 | 90 to 100 | COCCNC(=O)N1CC2(CC2)[C@H](NS(=O)(=O)CF)[C@@H]1Cc1cccc(-c2ccccc2)c1F [Compound 357, (6S,7S)-6-((2-fluoro-[1,1′-biphenyl]-3-yl)methyl)-7-((fluoromethyl)sulfonamido)-N-(2-methoxyethyl)-5-azaspiro[2.4]heptane-5-carboxamide] |  |
| 0.0794 to 1 | 90 to 100 | CS(=O)(=O)NC1C(Cc2cccc(-c3cc(F)cc(F)c3)c2F)N(C(=O)C2CCC2)CC12CC2 (racemic) [Compound 29, N-(5-(cyclobutanecarbonyl)-6-((2,3′,5′-trifluoro-[1,1′-biphenyl]-3-yl)methyl)-5-azaspiro[2.4]heptan-7-yl)methanesulfonamide] |  |
| 0.0794 to 1 | 90 to 100 | O=C([C@H]1CCO1)N1CC2(CC2)[C@H](NS(=O)(=O)CF)[C@@H]1Cc1cccc(-c2cccc(F)c2)c1F [Compound 132, N-((6S,7S)-6-((2,3′-dfluoro-1,1′-biphenyl-3-yl)methyl)-5-((R)-oxetane-2-carbonyl)-5-azaspiro[2.4]heptan-7-yl)-1-fluoromethanesulfonamide] |  |
| 0.0794 to 1 | 90 to 100 | CC(C)S(=O)(=O)N[C@@H]1[C@H](Cc2cccc(-c3cc(F)cc(F)c3)c2F)N(C(=O)[C@H]2CCO2)CC12CC2 [Compound 222, N-((6S,7S)-5-((R)-oxetane-2-carbonyl)-6-((2,3′,5′-trifluoro-[1,1′-biphenyl]-3-yl)methyl)-5-azaspiro[2.4]heptan-7-yl)propane-2-sulfonamide] |  |
| 0.0794 to 1 | 90 to 100 | O=C([C@H]1CCO1)N1CC2(CC2)[C@H](NS(=O)(=O)CF)[C@@H]1Cc1cccc(-c2ccccc2)c1F [Compound 93, 1-fluoro-N-((6S,7S)-6-((2-fluoro-[1,1′-biphenyl]-3-yl)methyl)-5-((R)-oxetane-2-carbonyl)-5-azaspiro[2.4]heptan-7-yl)methanesulfonamide] |  |
| 10 to 100 | 90 to 100 | CS(=O)(=O)N[C@@H]1[C@H](Cc2cc(F)cc(-c3ccccc3F)c2F)N(C(=O)[C@H]2CCO2)CC12CC2 [Compound 350, N-((6S,7S)-5-((R)-oxetane-2-carbonyl)-6-((2,2′,5-trifluoro-[1,1′-biphenyl]-3-yl)methyl)-5-azaspiro[2.4]heptan-7-yl)methanesulfonamide] |  |
| 1 to 10 | 90 to 100 | CCS(=O)(=O)N[C@@H]1[C@H](Cc2cccc(-c3cccc(F)c3)c2F)N(C(=O)C(C)(C)O)CC12CC2 [Compound 184, N-((6S,7S)-6-((2,3′-difluoro-[1,1′-biphenyl]-3-yl)methyl)-5-(2-hydroxy-2-methylpropanoyl)-5-azaspiro[2.4]heptan-7-yl)ethanesulfonamide] |  |
